The record followed here is patent publication US20260001928A1 (CORTERIA PHARMACEUTICALS, priority 2022, published 2026).

One assay has as its target T1, human CRF2a receptor (Homo sapiens, UniProt Q13324).
T1 construct: expressed in transfected cells; host or cells: TeloHEAC cells
T1 sequence (Q13324 1-411): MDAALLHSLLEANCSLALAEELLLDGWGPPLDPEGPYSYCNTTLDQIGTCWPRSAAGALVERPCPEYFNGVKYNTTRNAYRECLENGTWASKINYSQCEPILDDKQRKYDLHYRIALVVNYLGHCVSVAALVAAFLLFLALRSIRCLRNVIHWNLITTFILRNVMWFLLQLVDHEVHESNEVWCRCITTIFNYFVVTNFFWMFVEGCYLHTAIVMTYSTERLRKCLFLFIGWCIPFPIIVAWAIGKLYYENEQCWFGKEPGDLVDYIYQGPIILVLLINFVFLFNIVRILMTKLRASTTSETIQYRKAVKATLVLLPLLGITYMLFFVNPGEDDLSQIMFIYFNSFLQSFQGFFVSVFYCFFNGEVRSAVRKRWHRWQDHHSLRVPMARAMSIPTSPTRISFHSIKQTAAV
Kind of assay: Activity at human CRF2a receptor, cAMP functional assay in TeloHEAC cells. The format is cell-based. Particulars: TeloHEAC cells stably expressing human CRF2a receptor, relative to urocortin 2 (100 nM = 100%). An outline of the steps: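 TeloHEAC cells stably expressing human CRF2a (10000 cells/well) were treated with 16-point 1:2 compound dilutions in HBSS/20 mM HEPES with IBMX for 30 min at 37° C. cAMP was read by HTRF (665/620 nm ratio). EC50 was the concentration giving 50% activation, with 100 nM urocortin 2 set as 100%.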

For another assay, the target named is T2, CFR1R receptor (Homo sapiens, UniProt P34998).
T2 construct: host or cells: CHO-K1 (clone 2)
T2 sequence (P34998 24-415): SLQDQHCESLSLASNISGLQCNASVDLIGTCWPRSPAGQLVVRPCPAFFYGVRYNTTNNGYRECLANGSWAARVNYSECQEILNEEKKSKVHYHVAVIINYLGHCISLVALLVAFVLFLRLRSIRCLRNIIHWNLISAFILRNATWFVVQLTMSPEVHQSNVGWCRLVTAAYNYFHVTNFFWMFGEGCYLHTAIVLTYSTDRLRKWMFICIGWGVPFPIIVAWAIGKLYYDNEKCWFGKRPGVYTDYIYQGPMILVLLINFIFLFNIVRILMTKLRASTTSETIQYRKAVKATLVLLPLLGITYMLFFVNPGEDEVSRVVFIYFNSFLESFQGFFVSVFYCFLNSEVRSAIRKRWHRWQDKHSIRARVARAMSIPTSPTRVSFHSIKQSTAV
The assay is described as follows: Activity at anti-target CFR1R receptor, cAMP assay in CRF1R-overexpression CHO-K1 cells. It counts as cell-based. Particulars: 100% = Sauvagine at 100 nM; for EC50: cAMP. The procedure, abridged:
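Clone 2; cryopreserved stocks (10% DMSO); 4000 cells/well final; 100% activation = Sauvagine 100 nM; otherwise as TeloHAEC protocol.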

*1 amine or outer side, *2 acyl side, *3 side chain or, on linkers, in order; H or OH if unused. Where a SMILES comes first, the peptide text is derived from it. Side-chain parts run from the residue outwards. [ ]: non-standard residue; d: D form. The star is where a group is joined. C18 diacid = O=C(O)CCCCCCCCCCCCCCCCC(=O)*; C16 diacid = O=C(O)CCCCCCCCCCCCCCC(=O)*; γGlu = O=C(O)[C@H](CCC(=O)[*:2])N[*:1]; NMeI = CC[C@H](C)[C@H](NC)C(=O)O; αMeL = CC(C)C[C@](C)(N)C(=O)O; Api = NC1(C(=O)O)CCNCC1; AEEA = NCCOCCOCC(=O)O; Aib = CC(C)(N)C(=O)O

For the compound `CC[C@H](C)[C@H](NC(C)=O)C(=O)N[C@H](C(=O)N[C@@H](CC(C)C)C(=O)N[C@@H](CO)C(=O)N[C@@H](CC(C)C)C(=O)N[C@@H](CC(=O)O)C(=O)N[C@H](C(=O)N1CCC[C@H]1C(=O)N[C@H](C(=O)N[C@@H](CCCCN)C(=O)N[C@@](C)(CC(C)C)C(=O)N[C@@H](CCCCNC(=O)CC[C@H](NC(=O)CCCCCCCCCCCCCCC(=O)O)C(=O)O)C(=O)N[C@@H](CCC(N)=O)C(=O)NC(C)(C)C(=O)N[C@@H](CC(C)C)C(=O)N[C@@H](CC(C)C)C(=O)N[C@@H](CCCCN)C(=O)N[C@@H](CCC(N)=O)C(=O)N[C@@H](CCC(=O)O)C(=O)N[C@@H](CCCNC(=N)N)C(=O)N[C@@H](CCC(N)=O)C(=O)N[C@@H](CCCCN)C(=O)N[C@@H](CCCCN)C(=O)N[C@@H](CCC(N)=O)C(=O)N[C@@H](CCCNC(=N)N)C(=O)N[C@@H](CCC(=O)O)C(=O)N[C@@H](CCC(N)=O)C(=O)N[C@@H](C)C(=O)N[C@@H](CCC(=O)O)C(=O)N[C@@H](CCCCN)C(=O)N[C@@H](CC(N)=O)C(=O)NC(C)(C)C(=O)N[C@@H](CCC(N)=O)C(=O)N[C@H](C(=O)N[C@@H](CC(C)C)C(=O)N[C@@H](CCC(=O)O)C(=O)N[C@@H](CCC(N)=O)C(=O)N[C@H](C(N)=O)C(C)C)[C@@H](C)CC)[C@@H](C)CC)C(C)C)C(C)C` [compound 20] (Ac-IVLSLDVPIK[αMeL]K([γGlu-C16 diacid])Q[Aib]LLKQERQKKQREQAEKN[Aib]QILEQV-NH2), a half-maximal response at human CRF2a receptor (EC50) required 1.09 nM. Further, at CFR1R receptor, the “Emax (% I)” value worked out at 3 % I and the EC50 was more than 250 nM.

In the case of `CC[C@H](C)[C@H](NC(C)=O)C(=O)N[C@H](C(=O)N[C@@H](CC(C)C)C(=O)N[C@@H](CO)C(=O)N[C@@H](CC(C)C)C(=O)N[C@@H](CC(=O)O)C(=O)N[C@@H](C(=O)N1CCC[C@H]1C(=O)N[C@H](C(=O)N[C@@H](CCCCN)C(=O)N[C@@H](CC(C)C)C(=O)N[C@@H](CCCCNC(=O)CC[C@H](NC(=O)CCCCCCCCCCCCCCC(=O)O)C(=O)O)C(=O)N[C@@H](CCCCN)C(=O)N[C@H](C(=O)N[C@@H](CC(C)C)C(=O)N[C@@H](CC(C)C)C(=O)N[C@@H](CCC(=O)O)C(=O)N[C@@H](CCC(N)=O)C(=O)N[C@@H](CCC(=O)O)C(=O)N[C@@H](CCCCN)C(=O)N[C@@H](CCC(N)=O)C(=O)N[C@@H](C)C(=O)N[C@@H](CCCCN)C(=O)N[C@@H](CCC(N)=O)C(=O)N[C@@H](CCCNC(=N)N)C(=O)N[C@@H](CCC(=O)O)C(=O)N[C@@H](CCC(N)=O)C(=O)N[C@@H](C)C(=O)N[C@@H](CCC(=O)O)C(=O)N[C@H](C(=O)N[C@@H](CC(N)=O)C(=O)NC(C)(C)C(=O)N[C@@H](CCC(N)=O)C(=O)N[C@H](C(=O)N[C@@H](CC(C)C)C(=O)N[C@@H](C)C(=O)N[C@@H](CCC(N)=O)C(=O)N[C@H](C(N)=O)C(C)C)[C@@H](C)CC)[C@@H](C)O)[C@@H](C)CC)[C@@H](C)CC)C(C)C)C(C)C` [compound 166] (Ac-IVLSLD[dV]PIKLK([γGlu-C16 diacid])KILLEQEKQAKQREQAETN[Aib]QILAQV-NH2), at human CRF2a receptor, the EC50 worked out at 0.77 nM. In addition, on CFR1R receptor, the “Emax (% I)” value was 5 % I and the EC50 is more than 250 nM.

Compound `CC[C@H](C)[C@H](NC(C)=O)C(=O)N[C@H](C(=O)N[C@@H](CC(C)C)C(=O)N[C@@H](CO)C(=O)N[C@@H](CC(C)C)C(=O)N[C@@H](CC(=O)O)C(=O)N[C@@H](C(=O)N1CCC[C@H]1C(=O)N[C@H](C(=O)N[C@@H](CCCCN)C(=O)N[C@@](C)(CC(C)C)C(=O)N[C@@H](CCCCNC(=O)COCCOCCNC(=O)COCCOCCNC(=O)CC[C@H](NC(=O)CCCCCCCCCCCCCCCCC(=O)O)C(=O)O)C(=O)N[C@@H](CCCCN)C(=O)N[C@H](C(=O)N[C@@H](CC(C)C)C(=O)N[C@@H](CC(C)C)C(=O)N[C@@H](CCC(=O)O)C(=O)N[C@@H](CCC(N)=O)C(=O)N[C@@H](CCC(=O)O)C(=O)N[C@@H](CCCCN)C(=O)N[C@@H](CCC(N)=O)C(=O)N[C@@H](CCCCN)C(=O)N[C@@H](CCCCN)C(=O)N[C@@H](CCC(N)=O)C(=O)N[C@@H](CCCNC(=N)N)C(=O)N[C@@H](CCC(=O)O)C(=O)N[C@@H](CCC(N)=O)C(=O)N[C@@H](C)C(=O)N[C@@H](CCC(=O)O)C(=O)N[C@H](C(=O)N[C@@H](CC(N)=O)C(=O)N[C@H](C(=O)N[C@@H](CCC(N)=O)C(=O)N[C@H](C(=O)N[C@@H](CC(C)C)C(=O)N[C@@H](C)C(=O)N[C@@H](CCC(N)=O)C(=O)N[C@H](C(N)=O)C(C)C)[C@@H](C)CC)C(C)C)[C@@H](C)O)[C@@H](C)CC)[C@@H](C)CC)C(C)C)C(C)C` [compound 111] (Ac-IVLSLD[dV]PIK[αMeL]K([AEEA-AEEA-γGlu-C18 diacid])KILLEQEKQKKQREQAETNVQILAQV-NH2) yielded an EC50 on human CRF2a receptor of 2.58 nM. At CFR1R receptor, the “Emax (% I)” value was −3 % I and the EC50 was more than 250 nM.

As to `CC[C@H](C)[C@H](N)C(=O)N[C@H](C(=O)N[C@@H](CC(C)C)C(=O)N[C@@H](CO)C(=O)N[C@@H](CC(C)C)C(=O)N[C@@H](CC(=O)O)C(=O)N[C@@H](C(=O)N1CCC[C@H]1C(=O)N[C@H](C(=O)N[C@@H](CCCCN)C(=O)N[C@@H](CC(C)C)C(=O)N[C@@H](CCCCNC(=O)COCCOCCNC(=O)COCCOCCNC(=O)CC[C@H](NC(=O)CCCCCCCCCCCCCCCCC(=O)O)C(=O)O)C(=O)N[C@@H](CCC(N)=O)C(=O)N[C@H](C(=O)N[C@@H](CC(C)C)C(=O)N[C@@H](CC(C)C)C(=O)N[C@@H](CCCCN)C(=O)N[C@@H](CCC(N)=O)C(=O)N[C@@H](CCC(=O)O)C(=O)N[C@@H](CCCNC(=N)N)C(=O)N[C@@H](CCC(N)=O)C(=O)N[C@@H](CCCCN)C(=O)N[C@@H](CCCCN)C(=O)N[C@@H](CCC(N)=O)C(=O)N[C@@H](CCCNC(=N)N)C(=O)N[C@@H](CCC(=O)O)C(=O)N[C@@H](CCC(N)=O)C(=O)N[C@@H](C)C(=O)N[C@@H](CCC(=O)O)C(=O)N[C@@H](CCCCN)C(=O)N[C@@H](CC(N)=O)C(=O)N[C@@H](CCCCN)C(=O)N[C@@H](CCC(N)=O)C(=O)N[C@H](C(=O)N[C@@H](CC(C)C)C(=O)N[C@@H](CCC(=O)O)C(=O)N[C@@H](CCC(N)=O)C(=O)N[C@H](C(N)=O)C(C)C)[C@@H](C)CC)[C@@H](C)CC)[C@@H](C)CC)C(C)C)C(C)C` [compound 150] (H-IVLSLD[dV]PIKLK([AEEA-AEEA-γGlu-C18 diacid])QILLKQERQKKQREQAEKNKQILEQV-NH2), the values for the EC50 on human CRF2a receptor and on CFR1R receptor were 0.25 nM and more than 250 nM, respectively. Also, the “Emax (% I)” value on CFR1R receptor is recorded as 38 % I.

In the case of `CC[C@H](C)[C@H](NC)C(=O)N[C@H](C(=O)N[C@@H](CC(C)C)C(=O)N[C@@H](CO)C(=O)N[C@@H](CC(C)C)C(=O)N[C@@H](CC(=O)O)C(=O)N[C@@H](C(=O)N1CCC[C@H]1C(=O)N[C@H](C(=O)N[C@@H](CCCCN)C(=O)N[C@@H](CC(C)C)C(=O)N[C@@H](CCCCNC(=O)CC[C@H](NC(=O)CCCCCCCCCCCCCCCCC(=O)O)C(=O)O)C(=O)N[C@@H](CCCCN)C(=O)N[C@H](C(=O)N[C@@H](CC(C)C)C(=O)N[C@@H](CC(C)C)C(=O)N[C@@H](CCC(=O)O)C(=O)N[C@@H](CCC(N)=O)C(=O)N[C@@H](CCC(=O)O)C(=O)N[C@@H](CCCCN)C(=O)N[C@@H](CCC(N)=O)C(=O)N[C@@H](CCCCN)C(=O)N[C@@H](CCCCN)C(=O)N[C@@H](CCC(N)=O)C(=O)N[C@@H](CCCNC(=N)N)C(=O)N[C@@H](CCC(=O)O)C(=O)N[C@@H](CCC(N)=O)C(=O)N[C@@H](C)C(=O)N[C@@H](CCC(=O)O)C(=O)N[C@H](C(=O)N[C@@H](CC(N)=O)C(=O)NC1(C(=O)N[C@@H](CCC(N)=O)C(=O)N[C@H](C(=O)N[C@@H](CC(C)C)C(=O)N[C@@H](C)C(=O)N[C@@H](CCC(N)=O)C(=O)N[C@H](C(N)=O)C(C)C)[C@@H](C)CC)CCNCC1)[C@@H](C)O)[C@@H](C)CC)[C@@H](C)CC)C(C)C)C(C)C` [compound 141] (H-[NMeI]VLSLD[dV]PIKLK([γGlu-C18 diacid])KILLEQEKQKKQREQAETN[Api]QILAQV-NH2), the EC50 at human CRF2a receptor is 0.16 nM; on CFR1R receptor, more than 250 nM. Besides, the “Emax (% I)” value at CFR1R receptor turned out to be 32 % I.
